System: hyperuricemic gout subjects with moderate to severe renal impairment
Experiment: Example 1 study: eGFR using the MDRD formula
Assay type: in vivo, human
Settings: for change in eGFR over time: prior use of ACEi; for change in eGFR levels over time: prior use of ARB; for change in mean eGFR levels: subjects with moderate renal impairment
Experimental: Following the Study Day 1 Visit, subjects returned to the clinic for study visits at Day 14, Months 1, 3, 6, 9 and for a final visit at Month 12/ET Visit. […] Gout flare assessments were collected at each visit. Estimated GFR by Modification of Diet in Renal Disease (MDRD) calculation was performed by the Central Laboratory at all visits. Blood pressure (clinic with standardized instruments) was measured throughout the study. Adverse events, electrocardiograms (ECGs), clinical laboratory tests, and vital signs were collected at each visit.
The secondary efficacy variables for this study included change from baseline to Month 12 in eGFR using the MDRD formula; and percentage of subjects with sUA<6.0 mg/dL at Month 12.
An ANCOVA analysis similar to the primary analysis was used for analysis of eGFR. Subgroup analyses were also summarized for eGFR as for the primary endpoint.

## Cc1nc(-c2ccc(OCC(C)C)c(C#N)c2)sc1C(=O)O [Febuxostat, 2-[3-cyano-4-(2-methylpropoxy)phenyl]-4-methylthiazole-5-carboxylic acid]
30 mg BID, Day 14
  eGFR using MDRD formula, Change from Baseline: −0.99 mL/min/1.73 m^2
  eGFR using MDRD formula, Mean (SD): 33.25 (8.042) mL/min/1.73 m^2
30 mg BID, Month 1
  eGFR using MDRD formula, Change from Baseline: −1.48 mL/min/1.73 m^2
  eGFR using MDRD formula, Mean (SD): 32.99 (8.305) mL/min/1.73 m^2
30 mg BID, Month 3
  eGFR using MDRD formula, Change from Baseline: −0.72 mL/min/1.73 m^2
  eGFR using MDRD formula, Mean (SD): 33.52 (9.005) mL/min/1.73 m^2
30 mg BID, Month 6
  eGFR Change from Baseline, LS mean (SE): 0.03 (0.955) mL/min/1.73 m^2
  eGFR Change from Baseline, LS mean difference (SE) from placebo group: 1.74 (1.374) mL/min/1.73 m^2
  eGFR using MDRD formula, Change from Baseline: −0.06 mL/min/1.73 m^2
  eGFR using MDRD formula, Mean (SD): 34.18 (8.004) mL/min/1.73 m^2
30 mg BID, Month 9
  eGFR using MDRD formula, Change from Baseline: −0.91 mL/min/1.73 m^2
  eGFR using MDRD formula, Mean (SD): 33.33 (9.468) mL/min/1.73 m^2
30 mg BID, Month 12
  eGFR Change from Baseline, LS mean (SE): 0.33 (1.172) mL/min/1.73 m^2
  eGFR Change from Baseline, LS mean difference (SE) from placebo group: 2.38 (1.687) mL/min/1.73 m^2
  eGFR using MDRD formula, Change from Baseline: 0.32 mL/min/1.73 m^2
  eGFR using MDRD formula, Mean (SD): 34.56 (9.382) mL/min/1.73 m^2
  change in mean eGFR levels: small improvement
30 mg BID, Month 12, listed as febuxostat
  eGFR Change from Baseline, LS mean (SE): 0.33 mL/min/1.73 m^2
30 mg BID
  change in eGFR over time: slight improvements
  change in eGFR levels over time: modest improvements
30 mg BID, sUA of 9.0 to <10.0 mg/dL at Baseline
  change in eGFR over time compared with placebo: small favorable trend
30 mg BID, sUA≥10.0 mg/dL at Baseline
  change in eGFR over time compared with placebo: small trend was apparent
30 mg BID, serum creatinine 2.0 to <2.5 mg/dL at Baseline
  change in eGFR over time compared with placebo: small favorable trend
40/80 mg QD, Day 14
  eGFR using MDRD formula, Change from Baseline: −0.52 mL/min/1.73 m^2
  eGFR using MDRD formula, Mean (SD): 33.87 (10.259) mL/min/1.73 m^2
40/80 mg QD, Month 1
  eGFR using MDRD formula, Change from Baseline: −0.29 mL/min/1.73 m^2
  eGFR using MDRD formula, Mean (SD): 33.91 (10.482) mL/min/1.73 m^2
40/80 mg QD, Month 3
  eGFR using MDRD formula, Change from Baseline: 0.14 mL/min/1.73 m^2
  eGFR using MDRD formula, Mean (SD): 34.34 (10.474) mL/min/1.73 m^2
40/80 mg QD, Month 6
  eGFR Change from Baseline, LS mean (SE): 0.04 (0.969) mL/min/1.73 m^2
  eGFR Change from Baseline, LS mean difference (SE) from placebo group: 1.75 (1.383) mL/min/1.73 m^2
  eGFR using MDRD formula, Change from Baseline: −0.03 mL/min/1.73 m^2
  eGFR using MDRD formula, Mean (SD): 34.18 (11.067) mL/min/1.73 m^2
40/80 mg QD, Month 9
  eGFR using MDRD formula, Change from Baseline: 1.18 mL/min/1.73 m^2
  eGFR using MDRD formula, Mean (SD): 35.39 (10.930) mL/min/1.73 m^2
40/80 mg QD, Month 12
  eGFR Change from Baseline, LS mean (SE): −0.86 (0.190) mL/min/1.73 m^2
  eGFR Change from Baseline, LS mean difference (SE) from placebo group: 1.19 (1.698) mL/min/1.73 m^2
  eGFR using MDRD formula, Change from Baseline: −0.82 mL/min/1.73 m^2
  eGFR using MDRD formula, Mean (SD): 33.38 (11.949) mL/min/1.73 m^2
40/80 mg QD, Month 12, listed as febuxostat
  eGFR Change from Baseline, LS mean (SE): −0.086 mL/min/1.73 m^2
40/80 mg QD
  change in eGFR over time: slight improvements
40/80 mg QD, sUA of 9.0 to <10.0 mg/dL at Baseline
  change in eGFR over time compared with placebo: small favorable trend
40/80 mg QD, serum creatinine 2.0 to <2.5 mg/dL at Baseline
  change in eGFR over time compared with placebo: small favorable trend
40/80 mg
  change in eGFR levels over time: moderate to large decreases
40/80 mg, Month 12
  change in mean eGFR levels: small decreases
